# Read-outs that look alike come from different tables or passages of the source.
# Key:
# Type in all cases: in vivo
# [1] = system: windgrass (Apera spica-venti); assay: Test B postemergence plant response; conditions: for Windgrass plant response rating: postemergence, 0-100 scale; for Plant response rating, Windgrass: Postemergence
# Procedure, shortened: (§1)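 Test compounds were applied postemergence to plants 2 to 18 cm tall (1- to 4-leaf stage). After 13 to 15 days in a greenhouse, each species was visually compared with untreated controls and rated 0 (no effect) to 100 (complete control).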
# [2] = system: winter barley (Hordeum vulgare); assay: Test B postemergence plant response; conditions: for Plant response rating, Barley: Postemergence, scale 0 to 100, 0 no effect, 100 complete control
# Procedure, shortened: as §1
# [3] = system: canarygrass (Phalaris minor); assay: Test B postemergence plant response; conditions: for Plant response rating, Canarygrass: Postemergence
# Procedure, shortened: as §1
# [4] = system: chickweed (Stellaria media); assay: Test B postemergence plant response; conditions: for Plant response rating, Chickweed: Postemergence
# Procedure, shortened: as §1
# [5] = system: pigweed (Amaranthus retroflexus); assay: Test A pre-/postemergence plant response; conditions: Amaranthus retroflexus, 240 h, read-out: Plant response rating, Pigweed; for pest or weed control at 31 g/ha: 31 g ai/ha; for pest or weed control at 125 g/ha: 125 g ai/ha
# Procedure, shortened: (§2)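 Seeds sown in loam–sand blend; test chemicals in non-phytotoxic solvent with surfactant applied preemergence as directed soil spray and, concurrently, postemergence to plants 2–10 cm tall at one- to two-leaf stage. Greenhouse ~10 days, then visual injury rating vs untreated controls on 0–100 scale (0 = no effect, 100 = complete control).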
# corn (Zea mays) = assay: Test A pre-/postemergence plant response; conditions: Zea mays, 240 h; for Corn plant response rating (crop injury, 0 = no effect, 100 = complete kill) at 31 g/ha: 31 g ai/ha; for Corn plant response rating (crop injury, 0 = no effect, 100 = complete kill) at 125 g/ha: 125 g ai/ha
# Procedure, shortened: as §2
# [6] = system: large crabgrass (Digitaria sanguinalis); assay: Test A pre-/postemergence plant response; conditions: Digitaria sanguinalis, 240 h, read-out: Plant response rating, Crabgrass, Large; for pest or weed control at 31 g/ha: 31 g ai/ha; for pest or weed control at 125 g/ha: 125 g ai/ha
# Procedure, shortened: as §2
# [7] = system: barnyardgrass (Echinochloa crus-galli); assay: Test A pre-/postemergence plant response; conditions: Echinochloa crus-galli, 240 h, read-out: Plant response rating, Barnyardgrass; for pest or weed control at 31 g/ha: 31 g ai/ha; for pest or weed control at 125 g/ha: 125 g ai/ha
# Procedure, shortened: as §2
# [8] = system: wheat (Triticum aestivum); assay: Test A pre-/postemergence plant response; conditions: Triticum aestivum, 240 h, read-out: Plant response rating, Wheat; for plant injury at 31 g/ha: 31 g ai/ha; for plant injury at 125 g/ha: 125 g ai/ha
# Procedure, shortened: as §2
# [9] = system: giant foxtail (Setaria faberi); assay: Test A pre-/postemergence plant response; conditions: Setaria faberi, 240 h, read-out: Plant response rating, Foxtail, Giant; for pest or weed control at 31 g/ha: 31 g ai/ha; for pest or weed control at 125 g/ha: 125 g ai/ha
# Procedure, shortened: as §2
# [10] = system: surinam grass (Brachiaria decumbens); assay: Test B pre-/postemergence plant response; conditions: for pest or weed control at 31 g/ha / pest or weed control at 62 g/ha: Urochloa decumbens, read-out: Plant response rating, Surinam Grass; for pest or weed control at 31 g/ha: 31 g ai/ha; for pest or weed control at 62 g/ha: 62 g ai/ha, 100 complete control
# Description: Seeds of plant species selected from blackgrass (Alopecurus myosuroides), downy bromegrass (Bromus tectorum), green foxtail (Setaria viridis), Italian ryegrass (Lolium multiflorum), wheat (Triticum aestivum), wild oat (Avena fatua), catchweed bedstraw (Galium aparine), bermudagrass (Cynodon dactylon), surinam grass (Brachiaria decumbens), cocklebur (Xanthium strumarium), corn (Zea mays), large crabgrass (Digitaria sanguinalis), woolly cupgrass (Eriochloa villosa), giant foxtail (Setaria faberii), goosegrass (Eleusine indica), johnsongrass (Sorghum halepense), kochia (Kochia scoparia), lambsquarters (Chenopodium album), morningglory (Ipomoea coccinea), eastern black (E.B.) nightshade (Solanum ptycanthum), yellow nutsedge (Cyperus esculentus), pigweed (Amaranthus retroflexus), common ragweed (Ambrosia elation), Russian thistle (Salsola iberica), soybean (Glycine max), common (oilseed) sunflower (Helianthus annuus), and velvetleaf (Abutilon theophrasti) were planted and treated preemergence with test chemicals formulated in a non-phytotoxic solvent mixture which included a surfactant.
# At the same time, plants selected from these crop and weed species and also winter barley (Hordeum vulgare), canarygrass (Phalaris minor), chickweed (Stellaria media) and windgrass (Apera spica-venti) were treated with postemergence applications of some of the test chemicals formulated in the same manner. Plants ranged in height from 2 to 18 cm (1- to 4-leaf stage) for postemergence treatments.
# Plant species in the flooded paddy test consisted of rice (Oryza sativa), umbrella sedge (Cyperus difformis), ducksalad (Heteranthera limosa) and barnyardgrass (Echinochloa crus-galli) grown to the 2-leaf stage for testing. At time of treatment, test pots were flooded to 3 cm above the soil surface, treated by application of test compounds directly to the paddy water, and then maintained at that water depth for the duration of the test. Treated plants and controls were maintained in a greenhouse for 13 to 15 days, after which time all species were compared to controls and visually evaluated. Plant response ratings, summarized in Table B, are based on a scale of 0 to 100 where 0 is no effect and 100 is complete control. A dash (-) response means no test result.
# [11] = 62 g ai/ha, scale 0 to 100, 0 no effect, 100 complete control
# [12] = 8 g ai/ha, postemergence, 0-100 scale
# [13] = post-emergence, Postemergence, 0 to 100 scale (0 no effect, 100 complete control)
# [14] = post-emergence, Postemergence, 0 to 100 scale, 0 no effect, 100 complete control
# [15] = pre-emergence, Preemergence, 0 to 100 scale, 0 is no effect, 100 is complete control
# [16] = pre-emergence, Preemergence, 0 to 100 scale (0 no effect, 100 complete control)
smiles,measurement,setting,value
"Cc1nn(C)c(=O)c(-n2nc(-c3ccc(C(F)(F)F)cc3)cc2C)c1O [Compound 75, 5-hydroxy-2,6-dimethyl-4-[5-methyl-3-[4-(trifluoromethyl)phenyl]-1H-pyrazol-1-yl]-3(2H)-pyridazinone]",Windgrass plant response rating,[1]; 8 g ai/ha,10
same,Windgrass plant response rating,[1]; 16 g ai/ha,50
same,"Plant response rating, Windgrass","[1]; 31 g ai/ha, scale 0 to 100",70
same,"Plant response rating, Windgrass",[1]; [11],90
same,Barley plant response rating,[2]; [12],0
same,"Plant response rating, Barley",[2]; 16 g ai/ha,0
same,"Plant response rating, Barley",[2]; 31 g ai/ha,15
same,"Plant response rating, Barley",[2]; 62 g ai/ha,60
same,Canarygrass plant response rating,[3]; [12],0
same,"Plant response rating, Canarygrass","[3]; 16 g ai/ha, scale 0 to 100",0
same,"Plant response rating, Canarygrass","[3]; 31 g ai/ha, scale 0 to 100",0
same,"Plant response rating, Canarygrass",[3]; [11],50
same,Chickweed plant response rating,[4]; [12],0
same,"Plant response rating, Chickweed","[4]; 16 g ai/ha, scale 0 to 100",0
same,"Plant response rating, Chickweed","[4]; 31 g ai/ha, scale 0 to 100",0
same,"Plant response rating, Chickweed",[4]; [11],0
same,pest or weed control at 31 g/ha,[5]; [13],0%
same,pest or weed control at 125 g/ha,[5]; [14],0%
same,pest or weed control at 31 g/ha,[5]; [15],0%
same,pest or weed control at 125 g/ha,[5]; [16],0%
same,"Corn plant response rating (crop injury, 0 = no effect, 100 = complete kill) at 31 g/ha",corn (Zea mays); [13],0%
same,"Corn plant response rating (crop injury, 0 = no effect, 100 = complete kill) at 125 g/ha",corn (Zea mays); [14],90%
same,"Corn plant response rating (crop injury, 0 = no effect, 100 = complete kill) at 31 g/ha",corn (Zea mays); [15],0%
same,"Corn plant response rating (crop injury, 0 = no effect, 100 = complete kill) at 125 g/ha",corn (Zea mays); [16],0%
same,pest or weed control at 31 g/ha,[6]; [13],20%
same,pest or weed control at 125 g/ha,[6]; [14],80%
same,pest or weed control at 31 g/ha,[6]; [15],0%
same,pest or weed control at 125 g/ha,[6]; [16],40%
same,pest or weed control at 31 g/ha,[7]; [13],10%
same,pest or weed control at 125 g/ha,[7]; [14],90%
same,pest or weed control at 31 g/ha,[7]; [15],0%
same,pest or weed control at 125 g/ha,[7]; [16],80%
same,plant injury at 31 g/ha,[8]; [13],10%
same,plant injury at 125 g/ha,[8]; [14],70%
same,plant injury at 31 g/ha,[8]; [15],0%
same,plant injury at 125 g/ha,[8]; [16],20%
same,pest or weed control at 31 g/ha,[9]; [13],50%
same,pest or weed control at 125 g/ha,[9]; [14],80%
same,pest or weed control at 31 g/ha,[9]; [15],20%
same,pest or weed control at 125 g/ha,[9]; [16],80%
same,Surinam Grass plant response rating,[10]; [12],60
same,Surinam Grass plant response rating,"[10]; 16 g ai/ha, postemergence, 0-100 scale",70
same,Surinam Grass plant response rating,"[10]; Preemergence, 8 g ai/ha, scale 0 to 100",45
same,Surinam Grass plant response rating,"[10]; Preemergence, 16 g ai/ha, scale 0 to 100",50
same,pest or weed control at 31 g/ha,"[10]; post-emergence, Postemergence, scale 0 to 100",75%
same,pest or weed control at 62 g/ha,"[10]; post-emergence, Postemergence, scale 0 to 100, 0 no effect",85%
same,pest or weed control at 31 g/ha,"[10]; pre-emergence, Preemergence, scale 0 to 100 (0 no effect, 100 complete control)",80%
same,pest or weed control at 62 g/ha,"[10]; pre-emergence, Preemergence, 0 to 100 scale, 0 no effect",98%
